Source: ChEMBL document CHEMBL5385900, “New insights in the development of positive allosteric modulators of α-amino-3-hydroxy-5-methyl-4-isoxazolepropionic acid (AMPA) receptors belonging to 3,4-dihydro-2H-1,2,4-benzothiadiazine 1,1-dioxides: Introduction of (mono/difluoro)methyl groups at the 2-position of the thiadiazine ring” (Eur J Med Chem, 2023)
Calls of active or inactive are those of the source. No cut-off for these calls is given here.

What was measured:
[1] = molecular target: T1, Glutamate receptor ionotropic, AMPA (Rattus norvegicus) (UniProt P19491+P19492+P19493+P19490); experiment: Positive allosteric modulation at AMPAR in rat hippocampal assessed as increase in AMPA induced noradrenaline release; design: concentration or dose not given beside the values
[2] = molecular target: Glutamate receptor ionotropic AMPA (Homo sapiens, UniProt P42261+P42262+P42263+P48058); experiment: Positive allosteric modulation at AMPAR in HEK293 cells expressing GluA2Q assessed as glutamate induced calcium influx; type: cell-based
[3] = molecular target: T1, Glutamate receptor ionotropic, AMPA (Rattus norvegicus); experiment: Positive allosteric modulation at AMPAR in rat primary cortical cells assessed as concentration required for 2 fold increase in AMPA induced current amplitude by FlipR assay; type: cell-based; conditions: Primary cortical neuron, filed as positive allosteric modulator
Mus musculus [4] = experiment: Cognition enhancing effect in CD1 mouse assessed as increase in exploration time for novel object at 3 mg/kg, po after 1 hr by object recognition test (reference value: 40%); type: functional
[5] = molecular target: T1, Glutamate receptor ionotropic, AMPA (Rattus norvegicus); experiment: Positive allosteric modulation at AMPAR in rat hippocampal assessed as increase in AMPA induced noradrenaline release by measuring concentration required for 2 fold increase in noradrenaline release; conditions: filed as positive allosteric modulator
[6] = molecular target: T1, Glutamate receptor ionotropic, AMPA (Rattus norvegicus); experiment: Positive allosteric modulation at AMPAR in rat primary cortical cells assessed as concentration required for 2 fold increase in AMPA induced current amplitude by FDSS fluorescence assay; type: cell-based; conditions: Primary cortical neuron, filed as positive allosteric modulator
Rattus norvegicus = experiment: Cognition enhancing effect in Wistar rat assessed as increase in long-term potentiation of synaptic response at 10 mg/kg, ip pretreated for 1 hr followed by tetanic stimulation and measured for 3 hrs; type: functional, organism-based; conditions: time 4.0 hrs
[7] = molecular target: Glutamate receptor ionotropic AMPA (Homo sapiens) (UniProt P48058+P42263+P42262+P42261); experiment: Positive allosteric modulation at AMPAR in HEK293 cells expressing GluA2Q assessed as glutamate induced calcium influx relative to control; type: cell-based; conditions: filed as positive allosteric modulator
Mus musculus [8] = experiment: Cognition enhancing effect in C57BL/6 mouse assessed as increase in performance of spontaneous alteration at 0.3 mg/kg, ip after 1 hr by T-maze test; type: functional, organism-based
[9] = Toxicity in NMR1 mouse assessed as pro-convulsant effect at 30 mg/kg, po; type: organism-based; conditions: in vivo
Mus musculus [10] = experiment: Cognition enhancing effect in CD1 mouse assessed as increase in exploration time for novel object at 1 mg/kg, po after 1 hr by object recognition test (reference value: 40%); type: functional
[11] = Toxicity in NMR1 mouse assessed as pro-convulsant effect at 100 mg/kg, po; type: organism-based; conditions: in vivo
Mus musculus [12] = experiment: Cognition enhancing effect in C57BL/6 mouse assessed as increase in performance of spontaneous alteration at 0.1 mg/kg, ip after 1 hr by T-maze test; type: functional, organism-based
[13] = filed as positive allosteric modulator

| Compound | Activity [1, 13] [%] | EC50 [2] [µM] | EC [3] [µM] | EC [6] [µM] | other results |
| --- | --- | --- | --- | --- | --- |
| CCN1c2ccc(Cl)cc2S(=O)(=O)N(C)C1C (centres undefined) | 103 | 31.6 | 6.2 | – | – |
| O=S1(=O)NCN(C2CC2)c2ccc(Cl)cc21 | 311 | 0.794 | 2.2 | 0.7 | Activity (Mus musculus [4]): 79%; EC [5]: 4.5 µM; Activity (Rattus norvegicus): Active; Emax [7]: 100%; Activity (Mus musculus [8]): Active; Activity [9]: Non-Toxic; Activity (Mus musculus [10]): 82% |
| O=S1(=O)c2cc(Cl)ccc2N(C2CC2)CN1C(F)F | 340 | > 100 | – | 6 | – |
| CCN1c2ccc(F)cc2S(=O)(=O)N(C)C1C (centres undefined) | 135 | 8.71 | – | 1.4 | – |
| O=S1(=O)NCN(C2CC2)c2ccc(F)cc21 | 230 | 0.275 | 0.2 | 0.3 | – |
| CC1N(C)c2ccc(F)cc2S(=O)(=O)N1C (centres undefined) | 167 | 15.1 | 4.1 | – | – |
| CCN1C(C)N(C)c2ccc(Cl)cc2S1(=O)=O (centres undefined) | – | > 100 | – | 11.2 | Activity [1]: < 100% |
| CC1N(C)c2ccc(Cl)cc2S(=O)(=O)N1C (centres undefined) | 112 | 81.3 | 4.3 | 0.8 | – |
| CN1CN(C2CC2)c2ccc(F)cc2S1(=O)=O | – | 57.5 | 9.3 | – | Activity [1]: < 100% |
| CCN1c2ccc(Cl)cc2S(=O)(=O)N(CC)C1C (centres undefined) | – | > 100 | – | 12.2 | Activity [1]: < 100% |
| O=S1(=O)c2cc(F)ccc2N(C2CC2)CN1CF | 427 | 0.282 | 0.6 | – | – |
| O=S1(=O)c2cc(F)ccc2N(C2CC2)CN1C(F)F | 345 | 16.6 | 6.9 | – | – |

Further lines, with some results ahead:

| Activity [1, 13] [%] | EC50 [2] [µM] | EC [3] [µM] | EC [6] [µM] | Compound | other results |
| --- | --- | --- | --- | --- | --- |
| 329 | 2.14 | 2.5 | – | CC1N(C2CC2)c2ccc(Cl)cc2S(=O)(=O)N1CF (centres undefined) | – |
| – | > 100 | 70.9 | – | CC1N(C2CC2)c2ccc(F)cc2S(=O)(=O)N1C (centres undefined) | Activity [1]: < 100% |
| – | > 100 | 65 | – | CC1N(C2CC2)c2ccc(Cl)cc2S(=O)(=O)N1C (centres undefined) | Activity [1]: < 100% |
| 394 | 2.19 | 2.1 | 1.5 | O=S1(=O)c2cc(Cl)ccc2N(C2CC2)CN1CF | Activity (Mus musculus [4]): 78%; EC [5]: 5 µM; Activity (Rattus norvegicus): Active; Activity [11]: Non-Toxic; Emax [7]: 90%; Activity (Mus musculus [12]): Active; Activity [9]: Non-Toxic; Activity (Mus musculus [10]): 64% |
| – | > 100 | 13.4 | – | CN1CN(C2CC2)c2ccc(Cl)cc2S1(=O)=O | – |
